Measurements from patent US20240368153A1, “Aminopyridine-based MTA-Cooperative PRMT5 Inhibitors” (Mirati Therapeutics, Inc., priority 2021, published 2024).
Like-named read-outs stand apart in the source and are kept apart here.

What was measured:
[1] = target: PRMT5•MTA (biotinylated PRMT5-MEP50) (Homo sapiens (Human), UniProt O14744); assay: SPR binding assay, MTA running buffer; conditions: 20 μM MTA running buffer
Protocol: (§1) SPR screening was performed in MTA running buffer (25 mM Bicine pH 7.6, 100 mM NaCl, 1 mM TCEP, 20 μM MTA, 0.05% Tween-20 and 2% DMSO). The biotinylated PRMT5-MEP50 surface was equilibrated with MTA running buffer for 12 hours prior to the start. […] Subsequently, compound titration was repeated in SAM-running buffer (25 mM Bicine pH 7.6, 100 mM NaCl, 1 mM TCEP, 20 μM SAM, 0.05% Tween-20, and 2% DMSO). […] After double referencing, the steady-state response was extracted for each fragment concentration and was fit to the Langmuir isotherm equation to determine the equilibrium dissociation constant (KD).

PRMT5/MEP50 complex = PRMT5/MEP50 complex (Homo sapiens (Human), UniProt O14744); assay: PRMT5:MEP50 FlashPlate Assay; format: biochemical
Sequence of PRMT5/MEP50 complex (O14744 whole entry): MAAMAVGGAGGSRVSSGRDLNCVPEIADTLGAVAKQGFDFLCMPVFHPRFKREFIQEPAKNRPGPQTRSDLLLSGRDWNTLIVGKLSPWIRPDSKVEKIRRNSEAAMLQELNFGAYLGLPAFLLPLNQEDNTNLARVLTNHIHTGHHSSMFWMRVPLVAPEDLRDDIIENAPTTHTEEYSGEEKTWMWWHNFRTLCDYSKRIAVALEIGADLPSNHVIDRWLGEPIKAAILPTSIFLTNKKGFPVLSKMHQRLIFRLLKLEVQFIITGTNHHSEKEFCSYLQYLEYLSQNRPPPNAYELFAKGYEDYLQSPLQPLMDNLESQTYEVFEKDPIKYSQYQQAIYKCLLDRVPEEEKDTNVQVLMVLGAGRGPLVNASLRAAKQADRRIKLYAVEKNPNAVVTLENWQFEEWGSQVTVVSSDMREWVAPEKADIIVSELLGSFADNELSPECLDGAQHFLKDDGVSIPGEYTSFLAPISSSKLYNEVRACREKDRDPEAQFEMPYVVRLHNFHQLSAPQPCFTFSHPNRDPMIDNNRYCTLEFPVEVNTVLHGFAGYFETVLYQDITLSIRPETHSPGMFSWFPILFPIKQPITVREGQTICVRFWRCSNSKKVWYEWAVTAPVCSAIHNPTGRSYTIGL
Sequence of PRMT5/MEP50 complex (Q9BQA1 whole entry partner): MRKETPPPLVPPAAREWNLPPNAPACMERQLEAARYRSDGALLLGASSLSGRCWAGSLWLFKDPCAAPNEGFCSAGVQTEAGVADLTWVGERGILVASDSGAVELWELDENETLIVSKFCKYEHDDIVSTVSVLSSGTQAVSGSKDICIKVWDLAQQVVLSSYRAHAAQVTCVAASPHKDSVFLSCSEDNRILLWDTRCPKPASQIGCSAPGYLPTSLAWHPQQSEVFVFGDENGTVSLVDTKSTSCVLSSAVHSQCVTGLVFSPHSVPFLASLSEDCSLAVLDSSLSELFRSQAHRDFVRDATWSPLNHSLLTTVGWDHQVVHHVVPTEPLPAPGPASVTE
Protocol: The PRMT5 inhibitory activity of compounds of the present invention was determined using a PRMT5:MEP50 FlashPlate Assay (Reaction Biology Corporation).
The assay uses purified human, PRMT5 enzyme to convert S-adenosyl-L-[methyl-^3H]methionine plus histone H4 L-arginine to S-adenosyl-L-homocysteine plus histone H4 [methyl-^3H]-L-arginine. The assay was carried out using Streptavidin-coated FlashPlates (Perkin Elmer), which contained a scintillant embedded in the plastic of the plate. The histone H4 peptide substrate was conjugated with biotin, which binds to the streptavidin-coated well of the plate, placing the H4 peptide in close proximity to the side well and the scintillant. The transfer of the tritiated methyl group from S-adenosyl-L-[methyl-^3H]methionine to the bound histone H4 peptide generated a radiolabeled histone H4, which was quantitated by measuring in a scintillation counter to determine the activity of PRMT5 enzyme in the presence and absence of compound. […] Briefly, compounds of the present invention were solubilized in 100% DMSO at a highest concentration of 10 mM. For IC, determinations, the initial starting concentration for the serial dilutions of each compound was 50 μM. Control samples lacking compound, PRMT5/MEP50 complex or various reaction components also were prepared and processed in parallel with compound test samples. SAH was used as a positive control for assay validation. To measure PRMT5 inhibitory activity, 3 nM PRMT5/MEP50 complex (Reaction Biology Corporation) was preincubated with test compound in assay buffer containing 40 nM histone H4 peptide (amino acids 1-15)-Biotin conjugate for 20 min at room temperature. The enzymatic reaction was initiated by adding 1 μM tritiated S-adenosyl methionine (final concentration) and the reaction is allowed to proceed for 20 min. The reaction was stopped and the amount of bound, tritiated H4 peptide in each sample was determined using a scintillation counter. The IC50 value for each compound was calculated from each 10-point dose-response curve for samples plus and minus MTA using GraphPad Prism software and the results for exemplary compounds of Formula (I) is shown in Table 9a.

[2] = target: recombinant human dual expressed Avi PRMT5/His-MEP50 protein (Homo sapiens (Human), UniProt O14744); assay: HTRF binding assay in presence of MTA; conditions: 30 μM MTA
Sequence of recombinant human dual expressed Avi PRMT5/His-MEP50 protein (O14744 2-637): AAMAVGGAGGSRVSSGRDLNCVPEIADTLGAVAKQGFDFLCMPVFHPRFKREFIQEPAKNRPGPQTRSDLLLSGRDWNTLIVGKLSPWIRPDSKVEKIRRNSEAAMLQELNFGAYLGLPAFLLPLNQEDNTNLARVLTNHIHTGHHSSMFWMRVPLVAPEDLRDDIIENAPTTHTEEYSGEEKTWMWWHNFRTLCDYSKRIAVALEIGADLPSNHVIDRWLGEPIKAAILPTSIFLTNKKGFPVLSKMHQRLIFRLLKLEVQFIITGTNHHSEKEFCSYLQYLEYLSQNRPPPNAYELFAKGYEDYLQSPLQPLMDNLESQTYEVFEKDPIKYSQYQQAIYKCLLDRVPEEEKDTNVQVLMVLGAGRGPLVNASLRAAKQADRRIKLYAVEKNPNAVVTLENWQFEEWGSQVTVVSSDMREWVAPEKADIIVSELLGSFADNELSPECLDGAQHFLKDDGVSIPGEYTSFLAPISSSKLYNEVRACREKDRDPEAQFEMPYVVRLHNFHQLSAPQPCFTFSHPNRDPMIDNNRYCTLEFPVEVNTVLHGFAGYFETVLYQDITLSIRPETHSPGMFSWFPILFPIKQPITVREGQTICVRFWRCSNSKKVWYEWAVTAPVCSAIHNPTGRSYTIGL
Sequence of recombinant human dual expressed Avi PRMT5/His-MEP50 protein (Q9BQA1 2-342 partner): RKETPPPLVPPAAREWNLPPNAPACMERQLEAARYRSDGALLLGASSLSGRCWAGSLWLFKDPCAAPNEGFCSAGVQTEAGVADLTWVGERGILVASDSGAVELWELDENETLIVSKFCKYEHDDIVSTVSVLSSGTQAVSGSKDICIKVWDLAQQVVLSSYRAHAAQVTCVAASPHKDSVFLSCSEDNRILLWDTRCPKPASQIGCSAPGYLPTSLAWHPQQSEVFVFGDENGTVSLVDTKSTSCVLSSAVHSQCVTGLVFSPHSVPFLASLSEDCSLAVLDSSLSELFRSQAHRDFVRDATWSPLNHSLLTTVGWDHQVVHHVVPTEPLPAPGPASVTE
Protocol: The PRMT5 binding activity of compounds of the present invention was determined using an HTRF binding assay or SPR assay.
A recombinant human dual expressed Avi PRMT5/His-MEP50) protein (corresponding to amino acids for PRMT5 2-637, and 2-342 for MEP50 expressed in baculovirus) was incubated with target fragments in final buffer (25 mM ADA pH 7.2, 30 μM MTA, 1 mM TCEP, 50 mM NaCl, 0.002% Tween, 5 nM proprietary Tracer binding compound prepared in-house), overnight at 2-8° C. After overnight incubation the binding is monitored after the addition of 0.5 nM Anti-His-Tb (Cisbio) after 1 hr incubation at RT (˜20-24 hrs total binding time). The HTRF signal was measured using a Clariostar reader (BMG) excitation filter (Ex Tr), dichroic filter (LP TP) and emission filters (F 665-10 and F 620-10) manufacturer's instructions. The HTRF ratio was calculated using the formula: [emission 665/emission 620]*10000.

[3] = target: PRMT5•SAM (biotinylated PRMT5-MEP50) (Homo sapiens (Human), UniProt O14744); assay: SPR binding assay, SAM running buffer; conditions: 20 μM SAM running buffer
Sequence of PRMT5•SAM (biotinylated PRMT5-MEP50) (O14744 whole entry): as the sequence (O14744 whole entry) above
Sequence of PRMT5•SAM (biotinylated PRMT5-MEP50) (Q9BQA1 whole entry partner): as the sequence (Q9BQA1 whole entry partner) above
Protocol: as §1

[4] = histone H4 peptide, absence of MTA, read-out: IC50
[5] = read-out: IC50 + 2 μM MTA, histone H4 peptide, presence of 2 μM MTA

Sequence of PRMT5•MTA (biotinylated PRMT5-MEP50) (O14744 whole entry, the tested form may be a part): as the sequence (O14744 whole entry) above
Sequence of PRMT5•MTA (biotinylated PRMT5-MEP50) (Q9BQA1 whole entry partner, the tested form may be a part): as the sequence (Q9BQA1 whole entry partner) above

Cc1cc2c(cc(CNC(=O)c3ccccc3)n2C2CC2)nc1N [Example 15-1, N-[(5-amino-1-cyclopropyl-6-methyl-pyrrolo[3,2-b]pyridin-2-yl)methyl]benzamide]
Kd [1]: 0.066 µM
IC50 (PRMT5/MEP50 complex; [4]): > 300 µM
IC50 (PRMT5/MEP50 complex; [5]): 44.9 µM
IC50 [2]: 0.362 µM

Cc1cc(N)nc2cc(CNC(=O)c3ccccc3)cnc12 [Example 7-1, N-[(6-amino-8-methyl-1,5-naphthyridin-3-yl)methyl]benzamide]
Kd [3]: 0.396 µM
Kd [1]: 0.094 µM
IC50 (PRMT5/MEP50 complex; [4]): 62.6 µM
IC50 (PRMT5/MEP50 complex; [5]): 5.57 µM
IC50 [2]: 0.158 µM

CC(=O)c1c(CNC(=O)c2ccccc2)[nH]c2cc(C)c(N)nc12 [Example 15-5, N-((3-acetyl-5-amino-6-methyl-1H-pyrrolo[3,2-b]pyridin-2-yl)methyl)benzamide]
Kd [3]: 631 µM
Kd [1]: 774 µM
IC50 [2]: ≥ 100 µM

Cc1cc2[nH]c(Cn3ccc4ccccc4c3=O)cc2nc1N [Example 14-7, 2-[(5-amino-6-methyl-1H-pyrrolo[3,2-b]pyridin-2-yl)methyl]isoquinolin-1-one]
Kd [3]: 0.006 µM
Kd [1]: 0.002 µM
IC50 (PRMT5/MEP50 complex; [4]): 36.7 µM
IC50 (PRMT5/MEP50 complex; [5]): 0.474 µM
IC50 [2]: 0.008 µM

Cc1cc(N)nc2cc(Cc3ccccc3F)cnc12 [Example 2-2, 7-(2-fluorobenzyl)-4-methyl-1,5-naphthyridin-2-amine]
Kd [3]: 39.1 µM
Kd [1]: 5.28 µM
IC50 [2]: 0.354 µM

Cc1cc(N)nc2ccc(-c3ccccc3F)nc12 [Example 4-7, 6-(2-fluorophenyl)-4-methyl-1,5-naphthyridin-2-amine]
Kd [3]: 81.4 µM
Kd [1]: 32 µM
IC50 (PRMT5/MEP50 complex; [4]): > 300 µM
IC50 (PRMT5/MEP50 complex; [5]): > 300 µM
IC50 [2]: 10.1 µM

Nc1nc2cc(CNC(=O)c3ccncn3)[nH]c2cc1Br [Example 8-2, N-[(5-amino-6-bromo-1H-pyrrolo[3,2-b]pyridin-2-yl)methyl]pyrimidine-4-carboxamide]
Kd [3]: 0.137 µM
Kd [1]: 0.009 µM
IC50 (PRMT5/MEP50 complex; [4]): 5.79 µM
IC50 (PRMT5/MEP50 complex; [5]): 0.362 µM
IC50 [2]: 0.013 µM

Cc1cc(N)nc2cc(CNC(=O)c3cc(NC4CC4)ncn3)cnc12 [Example 7-4, N-[(6-amino-8-methyl-1,5-naphthyridin-3-yl)methyl]-6-(cyclopropylamino)pyrimidine-4-carboxamide]
Kd [3]: 0.081 µM
Kd [1]: 0.022 µM
IC50 (PRMT5/MEP50 complex; [4]): 18.2 µM
IC50 (PRMT5/MEP50 complex; [5]): 1.66 µM
IC50 [2]: 0.029 µM

Cc1cc2[nH]c(-n3cncn3)cc2nc1N [Example 13-1, 6-methyl-2-(1,2,4-triazol-1-yl)-1H-pyrrolo[3,2-b]pyridin-5-amine]
Kd [3]: 1.18 µM
Kd [1]: 0.51 µM
IC50 (PRMT5/MEP50 complex; [4]): > 300 µM
IC50 (PRMT5/MEP50 complex; [5]): 176 µM
IC50 [2]: 1.28 µM

Cc1cc(N)nc2cc(CNC(=O)c3cc(O)ncn3)cnc12 [Example 7-3, N-[(6-amino-8-methyl-1,5-naphthyridin-3-yl)methyl]-6-hydroxy-pyrimidine-4-carboxamide]
Kd [3]: 12.5 µM
Kd [1]: 0.682 µM
IC50 (PRMT5/MEP50 complex; [4]): > 100 µM
IC50 (PRMT5/MEP50 complex; [5]): 60 µM
IC50 [2]: 1.06 µM

Cc1cc2sc(CNC(=O)c3ccccc3)cc2nc1N [Example 16-1, N-[(5-amino-6-methyl-thieno[3,2-b]pyridin-2-yl)methyl]benzamide]
Kd [3]: 1.35 µM
Kd [1]: 0.072 µM
IC50 (PRMT5/MEP50 complex; [4]): > 300 µM
IC50 (PRMT5/MEP50 complex; [5]): 18.2 µM
IC50 [2]: 0.163 µM

Cc1cc2[nH]ccc2nc1N [Example 9-1, 6-methyl-1H-pyrrolo[3,2-b]pyridin-5-amine]
Kd [3]: 3.36 µM
Kd [1]: 0.456 µM
IC50 (PRMT5/MEP50 complex; [4]): 188 µM
IC50 (PRMT5/MEP50 complex; [5]): 27.9 µM
IC50 [2]: 2.2 µM

Cc1cc(N)nc2cc(-c3cnsc3)cnc12 [Example 1-8, 7-(isothiazol-4-yl)-4-methyl-1,5-naphthyridin-2-amine]
Kd [3]: 19.1 µM
Kd [1]: 7.5 µM
IC50 (PRMT5/MEP50 complex; [4]): > 300 µM
IC50 (PRMT5/MEP50 complex; [5]): > 300 µM
IC50 [2]: 11.4 µM

Nc1nc2cc[nH]c2cc1C(F)(F)F [Example 9-3, 6-(trifluoromethyl)-1H-pyrrolo[3,2-b]pyridin-5-amine]
Kd [3]: 29.2 µM
Kd [1]: 11.7 µM
IC50 (PRMT5/MEP50 complex; [4]): 431 µM
IC50 (PRMT5/MEP50 complex; [5]): 210 µM
IC50 [2]: 20.3 µM

Cc1cc(N)nc2cc(CN3C(=O)c4ccccc4C3=O)cnc12 [Example 7-6, 2-[(6-amino-8-methyl-1,5-naphthyridin-3-yl)methyl]isoindoline-1,3-dione]
Kd [3]: 0.105 µM
Kd [1]: 0.012 µM
IC50 (PRMT5/MEP50 complex; [4]): > 300 µM
IC50 (PRMT5/MEP50 complex; [5]): 0.745 µM
IC50 [2]: 0.021 µM

Nc1nc2cc(NC(=O)c3ccccc3F)[nH]c2cc1Br [Example 12-4, N-(5-amino-6-bromo-1H-pyrrolo[3,2-b]pyridin-2-yl)-2-fluoro-benzamide]
Kd [3]: 4.95 µM
Kd [1]: 1.89 µM
IC50 (PRMT5/MEP50 complex; [4]): 100 µM
IC50 (PRMT5/MEP50 complex; [5]): 48.9 µM
IC50 [2]: 1.62 µM

Cc1cc2[nH]c(C(C#N)N3C(=O)c4ccccc4C3=O)cc2nc1N (stereo not shown) [Example 14-5, 2-(5-amino-6-methyl-1H-pyrrolo[3,2-b]pyridin-2-yl)-2-(1,3-dioxoisoindolin-2-yl)acetonitrile]
Kd [3]: 0.727 µM
Kd [1]: 0.203 µM
IC50 (PRMT5/MEP50 complex; [4]): 245 µM
IC50 (PRMT5/MEP50 complex; [5]): 4.26 µM
IC50 [2]: 0.037 µM

CC(=O)NCc1cc2nc(N)c(C)cc2[nH]1 [Example 14-3, N-((5-amino-6-methyl-1H-pyrrolo[3,2-b]pyridin-2-yl)methyl)acetamide]
Kd [3]: 0.038 µM
Kd [1]: 0.012 µM
IC50 (PRMT5/MEP50 complex; [4]): 271 µM
IC50 (PRMT5/MEP50 complex; [5]): 0.138 µM
IC50 [2]: 0.102 µM

Cc1cc(N)nc2cc(Oc3cccnc3)cnc12 [Example 3-7, 4-methyl-7-(3-pyridyloxy)-1,5-paphthyridin-2-amine]
Kd [1]: 2.46 µM
IC50 (PRMT5/MEP50 complex; [4]): 351 µM
IC50 (PRMT5/MEP50 complex; [5]): 26.1 µM
IC50 [2]: 0.546 µM

Cc1cc2[nH]c(CNC(=O)c3ccccc3)c(C#N)c2nc1N [Example 15-6, N-((5-amino-3-cyano-6-methyl-1H-pyrrolo[3,2-b]pyridin-2-yl)methyl)benzamide]
IC50 (PRMT5/MEP50 complex; [4]): > 300 µM
IC50 (PRMT5/MEP50 complex; [5]): 76.7 µM
IC50 [2]: 2.64 µM

CC(=O)N(C)Cc1cc2nc(N)c(C)cc2n1C(C)=O [Example 15-8, N-((1-acetyl-5-amino-6-methyl-1H-pyrrolo[3,2-b]pyridin-2-yl)methyl)-N-methylacetamide]
Kd [3]: 0.341 µM
Kd [1]: 0.043 µM
IC50 [2]: 1.01 µM

Cc1cc2[nH]c(NC(=O)c3ccccc3)cc2nc1N [Example 12-2, N-(5-amino-6-methyl-1H-pyrrolo[3,2-b]pyridin-2-yl)benzamide]
IC50 (PRMT5/MEP50 complex; [4]): 60.2 µM
IC50 (PRMT5/MEP50 complex; [5]): 44.7 µM
IC50 [2]: 5.46 µM

Cc1cc(N)nc2cc(Cc3cccnc3)cnc12 [Example 2-7, 4-methyl-7-(3-pyridylmethyl)-1,5-naphthyridin-2-amine]
Kd [3]: 1.22 µM
Kd [1]: 0.232 µM
IC50 [2]: 0.581 µM

Cc1cc2[nH]c(N3CCNC3=O)cc2nc1N [Example 13-6, 1-(5-amino-6-methyl-1H-pyrrolo[3,2-b]pyridin-2-yl)imidazolidin-2-one]
IC50 (PRMT5/MEP50 complex; IC50 + 2 μM MTA, histone H4 peptide, presence of 2 μM MTA): 183 µM
IC50 (PRMT5/MEP50 complex; [4]): 60.3 µM
IC50 [2]: 6.69 µM

Nc1ccc2c(n1)CN(c1cncc(Oc3ccccc3)c1)CC2 [Example 11-2, 7-(5-phenoxy-3-pyridyl)-6,8-dihydro-5H-1,7-naphthyridin-2-amine]
IC50 (PRMT5/MEP50 complex; [5]): 5.8 µM
IC50 [2]: 0.073 µM
